Data taken from BigSolDB 2.1.

c1ccc2c(c1)Cc1ccccc1-2
solubility (mole fraction)
Settings | 278.15 K | 283.15 K | 288.15 K | 293.15 K | 298.15 K | 303.15 K | 308.15 K | 313.15 K | 318.15 K
in THF | 0.12 | 0.13 | 0.148 | 0.163 | 0.182 | 0.2 | 0.225 | 0.248 | 0.273
in acetone | 0.0353 | 0.0406 | 0.0482 | 0.0567 | 0.0658 | 0.0779 | 0.0931 | 0.109 | 0.126
in acetonitrile | 0.0101 | 0.0113 | 0.0138 | 0.0161 | 0.0197 | 0.0235 | 0.0288 | 0.0345 | 0.0406
in ethanol | 0.0038 | 0.00448 | 0.0055 | 0.00669 | 0.00816 | 0.00937 | 0.0111 | 0.0132 | 0.0154
in ethyl acetate | 0.046 | 0.0542 | 0.062 | 0.0737 | 0.0866 | 0.102 | 0.119 | 0.139 | 0.163
in ethyl formate | 0.0346 | 0.0395 | 0.046 | 0.0552 | 0.0654 | 0.0781 | 0.0933 | 0.112 | 0.133
in isobutyl acetate | 0.0546 | 0.0611 | 0.0718 | 0.0816 | 0.0914 | 0.104 | 0.124 | 0.142 | 0.162
in isopropanol | 0.00401 | 0.0045 | 0.00559 | 0.00675 | 0.00808 | 0.00943 | 0.0121 | 0.0149 | 0.0177
in isopropyl acetate | 0.044 | 0.0504 | 0.058 | 0.0695 | 0.0812 | 0.0936 | 0.11 | 0.127 | 0.148
in methanol | 0.00199 | 0.00235 | 0.00275 | 0.00313 | 0.00395 | 0.00452 | 0.00528 | 0.00645 | 0.00709
in methyl acetate | 0.0374 | 0.0422 | 0.0498 | 0.0607 | 0.0712 | 0.0856 | 0.1 | 0.12 | 0.142
in n-butyl acetate | 0.0693 | 0.0756 | 0.0874 | 0.0991 | 0.111 | 0.121 | 0.146 | 0.167 | 0.19
in n-propanol | 0.0052 | 0.00612 | 0.0072 | 0.009 | 0.0112 | 0.013 | 0.0155 | 0.0186 | 0.0216
in n-propyl acetate | 0.0596 | 0.0671 | 0.0763 | 0.0862 | 0.0969 | 0.108 | 0.134 | 0.153 | 0.176
